# Measured values as given in patent US10597388B2, “Pyridazinone herbicides” (FMC CORPORATION, priority 2014, dated 2020).
# Key:
# Assay type in all cases: in vivo
# [1] = tested on: barnyardgrass (Echinochloa crus-galli); assay: Test B flooded paddy test; conditions: 250 g ai/ha, Flood; visual rating on scale of 0 to 100 where 0 is no effect and 100 is complete control; 13 to 15 d after treatment
# How it was run: (§1)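 Plants at the 2-leaf stage were flooded to 3 cm above soil, and test compounds were applied directly into the paddy water, which was held at that depth throughout. After 13 to 15 d in a greenhouse, injury was rated visually against untreated controls on a 0–100 scale (0 no effect, 100 complete control).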
# rice (Oryza sativa) = assay: Test B flooded paddy test; conditions: 250 g ai/ha, Flood; visual rating on scale of 0 to 100 where 0 is no effect and 100 is complete control; 13 to 15 d after treatment
# How it was run: as §1
# [2] = tested on: sedge, umbrella (small-flower umbrella sedge, Cyperus difformis); assay: Test B flooded paddy test; conditions: 250 g ai/ha, Flood; visual rating on scale of 0 to 100 where 0 is no effect and 100 is complete control; 13 to 15 d after treatment
# How it was run: as §1
# [3] = tested on: ducksalad (Heteranthera limosa); assay: Test B flooded paddy test; conditions: 250 g ai/ha, Flood; visual rating on scale of 0 to 100 where 0 is no effect and 100 is complete control; 13 to 15 d after treatment
# How it was run: as §1
# [4] = tested on: galium (catchweed bedstraw, Galium aparine); assay: Test A greenhouse herbicide test, postemergence; conditions: for Plant response rating, Galium: 125 g ai/ha, visual rating after approx. 10 d, 0 to 100 scale (0 no effect, 100 complete control); for Galium plant response rating: 0 to 100 scale, 0 is no effect, 100 is complete control
# How it was run: (§2)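 Plants grown in loam soil/sand blend pots were treated postemergence at 2 to 10 cm height, one- to two-leaf stage, with formulated test chemicals. After approximately 10 d in a greenhouse, injury was rated visually against untreated controls on a 0 to 100 scale (0 no effect, 100 complete control).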
# [5] = tested on: blackgrass (Alopecurus myosuroides); assay: Test A greenhouse herbicide test, postemergence; conditions: for Plant response rating, Blackgrass: 125 g ai/ha, visual rating after approx. 10 d, 0 to 100 scale (0 no effect, 100 complete control); for Blackgrass plant response rating: 0 to 100 scale, 0 is no effect, 100 is complete control
# How it was run: as §2
# kochia (Kochia scoparia) = assay: Test C greenhouse herbicide test, postemergence
# How it was run: (§3)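 Visual injury scores (0–100, where 100 means complete control) were assigned 13 to 15 d after postemergence application, by comparison with untreated plants. Treated seedlings stood 2 to 18 cm tall, at the 1- to 4-leaf stage.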
# [6] = tested on: chickweed (common chickweed, Stellaria media); assay: Test C greenhouse herbicide test, postemergence
# How it was run: as §3
# [7] = tested on: oat, wild (wild oat, Avena fatua); assay: Test C greenhouse herbicide test, postemergence
# How it was run: as §3
# [8] = tested on: wheat (winter wheat, Triticum aestivum); assay: Test C greenhouse herbicide test, pre- and postemergence
# How it was run: (§4)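 Preemergence: seeds sown in a loam soil–sand blend and sprayed with test chemicals in a non-phytotoxic solvent mixture containing surfactant. Postemergence: plants grown in peat-based medium and treated at 2 to 18 cm (1- to 4-leaf stage). After 13 to 15 d in a greenhouse, injury was visually rated 0–100 against controls.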
# [9] = tested on: johnsongrass (Sorghum halepense); assay: as above
# How it was run: as §4
# [10] = tested on: pigweed (Amaranthus retroflexus); assay: as above
# How it was run: as §4
# [11] = Postemergence, 31 g ai/ha, 0 to 100 scale (0 no effect, 100 complete control)
# [12] = Postemergence, 125 g ai/ha, scale 0 to 100, 0 is no effect, 100 is complete control
# [13] = Postemergence, 250 g ai/ha, scale 0 to 100, 0 no effect, 100 complete control, 13 to 15 d
# [14] = postemergence, 62 g ai/ha, scale 0 to 100, 0 no effect, 100 complete control
# [15] = Preemergence, 62 g ai/ha, scale 0 to 100, 0 is no effect, 100 is complete control
# [16] = Preemergence, 125 g ai/ha, scale 0 to 100, 0 is no effect, 100 is complete control
# [17] = Preemergence, 250 g ai/ha, scale 0 to 100, 0 no effect, 100 complete control
# [18] = Preemergence, 31 g ai/ha, scale 0 to 100, 0 is no effect, 100 is complete control
smiles,measurement,setting,value
Cc1ccc2sc(C)c(-c3c(OC(=O)C(C)(C)C)c(C)nn(C)c3=O)c2c1 [Compound 26],"Plant response rating, Barnyardgrass",[1],0
same,"Plant response rating, Rice",rice (Oryza sativa),0
same,"Plant response rating, Sedge, Umbrella",[2],0
same,"Plant response rating, Ducksalad",[3],0
same,"Plant response rating, Galium",[4],70
same,Galium plant response rating,[4]; 500 g ai/ha,90
same,"Plant response rating, Blackgrass",[5],30
same,Blackgrass plant response rating,[5]; 500 g ai/ha,70
same,Kochia plant response rating,kochia (Kochia scoparia); [11],80
same,"Plant response rating, Kochia",kochia (Kochia scoparia); [12],90
same,"Plant response rating, Kochia",kochia (Kochia scoparia); [13],100
same,Kochia plant response rating,kochia (Kochia scoparia); [14],70
same,Chickweed plant response rating,[6]; [11],95
same,"Plant response rating, Chickweed",[6]; [12],100
same,"Plant response rating, Chickweed",[6]; [13],100
same,Chickweed plant response rating,[6]; [14],95
same,"Oat, Wild plant response rating",[7]; [11],60
same,"Plant response rating, Oat, Wild",[7]; [12],95
same,"Plant response rating, Oat, Wild",[7]; [13],90
same,"Oat, Wild plant response rating",[7]; [14],80
same,Wheat plant response rating,[8]; [11],0
same,"Plant response rating, Wheat",[8]; [12],0
same,"Plant response rating, Wheat",[8]; [13],5
same,Wheat plant response rating,[8]; [14],0
same,Johnsongrass plant response rating,[9]; [11],5
same,"Plant response rating, Johnsongrass",[9]; [12],5
same,"Plant response rating, Johnsongrass",[9]; [13],5
same,Johnsongrass plant response rating,[9]; [14],5
same,Pigweed plant response rating,[10]; [11],75
same,"Plant response rating, Pigweed",[10]; [12],98
same,"Plant response rating, Pigweed",[10]; [13],95
same,Pigweed plant response rating,[10]; [14],85
Cc1ccc2ccccc2c1-c1c(O)c(I)nn(C)c1=O [Compound 29],"Plant response rating, Barnyardgrass",[1],0
same,"Plant response rating, Rice",rice (Oryza sativa),0
same,"Plant response rating, Sedge, Umbrella",[2],60
same,"Plant response rating, Ducksalad",[3],55
same,"Plant response rating, Galium",[4],90
same,Galium plant response rating,[4]; 500 g ai/ha,90
same,"Plant response rating, Blackgrass",[5],70
same,Blackgrass plant response rating,[5]; 500 g ai/ha,80
same,Kochia plant response rating,kochia (Kochia scoparia); [11],60
same,"Plant response rating, Kochia",kochia (Kochia scoparia); [12],75
same,"Plant response rating, Kochia",kochia (Kochia scoparia); [13],85
same,Kochia plant response rating,kochia (Kochia scoparia); [14],60
same,Chickweed plant response rating,[6]; [11],95
same,"Plant response rating, Chickweed",[6]; [12],100
same,"Plant response rating, Chickweed",[6]; [13],100
same,Chickweed plant response rating,[6]; [14],95
same,"Oat, Wild plant response rating",[7]; [11],60
same,"Plant response rating, Oat, Wild",[7]; [12],85
same,"Plant response rating, Oat, Wild",[7]; [13],95
same,"Oat, Wild plant response rating",[7]; [14],55
same,Wheat plant response rating,[8]; [11],5
same,"Plant response rating, Wheat",[8]; [12],30
same,"Plant response rating, Wheat",[8]; [13],10
same,"Plant response rating, Wheat",[8]; [15],5
same,"Plant response rating, Wheat",[8]; [16],45
same,Wheat plant response rating,[8]; [17],50
same,Wheat plant response rating,[8]; [14],5
same,Johnsongrass plant response rating,[9]; [11],0
same,"Plant response rating, Johnsongrass",[9]; [13],25
same,"Plant response rating, Johnsongrass",[9]; [18],10
same,"Plant response rating, Johnsongrass",[9]; [15],5
same,"Plant response rating, Johnsongrass",[9]; [16],25
same,Johnsongrass plant response rating,[9]; [17],20
same,Johnsongrass plant response rating,[9]; [14],5
same,Pigweed plant response rating,[10]; [11],95
same,"Plant response rating, Pigweed",[10]; [12],98
same,"Plant response rating, Pigweed",[10]; [13],98
same,"Plant response rating, Pigweed",[10]; [18],100
same,"Plant response rating, Pigweed",[10]; [15],100
same,"Plant response rating, Pigweed",[10]; [16],100
same,Pigweed plant response rating,[10]; [17],100
same,Pigweed plant response rating,[10]; [14],95
CCc1ccc2ccccc2c1-c1c(O)c(C)nn(C)c1=O [Compound 32],"Plant response rating, Barnyardgrass",[1],0
same,"Plant response rating, Rice",rice (Oryza sativa),0
same,"Plant response rating, Sedge, Umbrella",[2],0
same,"Plant response rating, Ducksalad",[3],0
same,Galium plant response rating,[4]; 1000 g ai/ha,100
same,Blackgrass plant response rating,[5]; 1000 g ai/ha,90
same,Kochia plant response rating,kochia (Kochia scoparia); [11],50
same,"Plant response rating, Kochia",kochia (Kochia scoparia); [12],90
same,"Plant response rating, Kochia",kochia (Kochia scoparia); [13],95
same,Kochia plant response rating,kochia (Kochia scoparia); [14],50
same,Chickweed plant response rating,[6]; [11],90
same,"Plant response rating, Chickweed",[6]; [12],100
same,"Plant response rating, Chickweed",[6]; [13],100
same,Chickweed plant response rating,[6]; [14],95
same,"Oat, Wild plant response rating",[7]; [11],70
same,"Plant response rating, Oat, Wild",[7]; [12],100
same,"Plant response rating, Oat, Wild",[7]; [13],100
same,"Oat, Wild plant response rating",[7]; [14],90
same,Wheat plant response rating,[8]; [11],5
same,"Plant response rating, Wheat",[8]; [12],25
same,"Plant response rating, Wheat",[8]; [13],40
same,"Plant response rating, Wheat",[8]; [15],45
same,"Plant response rating, Wheat",[8]; [16],50
same,Wheat plant response rating,[8]; [17],70
same,Wheat plant response rating,[8]; [14],15
same,Johnsongrass plant response rating,[9]; [11],5
same,"Plant response rating, Johnsongrass",[9]; [12],15
same,"Plant response rating, Johnsongrass",[9]; [13],35
same,"Plant response rating, Johnsongrass",[9]; [18],0
same,"Plant response rating, Johnsongrass",[9]; [15],0
same,"Plant response rating, Johnsongrass",[9]; [16],10
same,Johnsongrass plant response rating,[9]; [17],45
same,Johnsongrass plant response rating,[9]; [14],25
same,Pigweed plant response rating,[10]; [11],75
same,"Plant response rating, Pigweed",[10]; [12],90
same,"Plant response rating, Pigweed",[10]; [13],95
same,"Plant response rating, Pigweed",[10]; [18],100
same,"Plant response rating, Pigweed",[10]; [15],100
same,"Plant response rating, Pigweed",[10]; [16],100
same,Pigweed plant response rating,[10]; [17],100
same,Pigweed plant response rating,[10]; [14],90
Cc1cc2ccccc2c(-c2c(O)c(C)nn(C)c2=O)c1C [Compound 34],"Plant response rating, Barnyardgrass",[1],0
same,"Plant response rating, Rice",rice (Oryza sativa),0
same,"Plant response rating, Sedge, Umbrella",[2],0
same,"Plant response rating, Ducksalad",[3],0
same,"Plant response rating, Galium",[4],90
same,Galium plant response rating,[4]; 500 g ai/ha,100
same,"Plant response rating, Blackgrass",[5],80
same,Blackgrass plant response rating,[5]; 500 g ai/ha,90
same,Kochia plant response rating,kochia (Kochia scoparia); [11],10
same,"Plant response rating, Kochia",kochia (Kochia scoparia); [12],60
same,"Plant response rating, Kochia",kochia (Kochia scoparia); [13],85
same,Kochia plant response rating,kochia (Kochia scoparia); [14],45
same,Chickweed plant response rating,[6]; [11],90
same,"Plant response rating, Chickweed",[6]; [12],90
same,"Plant response rating, Chickweed",[6]; [13],95
same,Chickweed plant response rating,[6]; [14],90
same,"Oat, Wild plant response rating",[7]; [11],80
same,"Plant response rating, Oat, Wild",[7]; [12],90
same,"Plant response rating, Oat, Wild",[7]; [13],90
same,"Oat, Wild plant response rating",[7]; [14],85
same,Wheat plant response rating,[8]; [11],5
same,"Plant response rating, Wheat",[8]; [12],10
same,"Plant response rating, Wheat",[8]; [13],0
same,"Plant response rating, Wheat",[8]; [15],0
same,"Plant response rating, Wheat",[8]; [16],5
same,Wheat plant response rating,[8]; [17],25
same,Wheat plant response rating,[8]; [14],5
same,Johnsongrass plant response rating,[9]; [11],5
same,"Plant response rating, Johnsongrass",[9]; [12],5
same,"Plant response rating, Johnsongrass",[9]; [13],5
same,"Plant response rating, Johnsongrass",[9]; [18],0
same,"Plant response rating, Johnsongrass",[9]; [15],0
same,"Plant response rating, Johnsongrass",[9]; [16],0
same,Johnsongrass plant response rating,[9]; [17],20
same,Johnsongrass plant response rating,[9]; [14],5
same,Pigweed plant response rating,[10]; [11],90
same,"Plant response rating, Pigweed",[10]; [12],80
same,"Plant response rating, Pigweed",[10]; [13],98
same,"Plant response rating, Pigweed",[10]; [18],100
same,"Plant response rating, Pigweed",[10]; [15],100
same,"Plant response rating, Pigweed",[10]; [16],100
same,Pigweed plant response rating,[10]; [17],100
same,Pigweed plant response rating,[10]; [14],85
